Laboratory results published in US11542261B2, “Substituted Imidazo[1,2-a]-pyridines as IRAK 1/4 and FLT3 inhibitors” (CHILDREN'S HOSPITAL MEDICAL CENTER, priority 2016, dated 2023).

What was measured:
[1] = Rat microsomal stability (RLM); assay type: in vitro ADME; details: Table 10
[2] = tested on: MLL-AF9/FLT3-ITD cells; assay type: cell-based; details: Homo sapiens, MLL-AF9, Table 10
[3] = tested on: MLL-AF9 NRas cells; experiment: NRAS IC50 (MLL-AF9 NRas cells); assay type: cell-based; details: Table 10

Compound | Stability [1] | IC50 [2] | IC50 [3]
c1cc(NC2CNC2)nc(-c2cnc3ccccn23)c1 [Compound I-12, N-(azetidin-3-yl)-6-(imidazo[1,2-a]pyridin-3-yl)pyridin-2-amine] | >30.0 min |  | 
Clc1ccc2ncc(-c3cccc(NC4CNC4)n3)n2c1 [Compound I-15, N-(azetidin-3-yl)-6-(6-chloroimidazo[1,2-a]pyridin-3-yl)pyridin-2-amine] |  | 1.18 µM | 16.6 µM
Clc1ccc2ncc(-c3cccc(NC4CCNC4)n3)n2c1 (stereo not drawn) [Compound I-16, 6-(6-chloroimidazo[1,2-a]pyridin-3-yl)-N-(pyrrolidin-3-yl)pyridin-2-amine] |  |  | 1.76 µM
Clc1ccc2ncc(-c3cccc(NC4CCCNC4)n3)n2c1 (stereo not drawn) [Compound I-17, 6-(6-chloroimidazo[1,2-a]pyridin-3-yl)-N-(piperidin-3-yl)pyridin-2-amine] | >30.0 min |  | 
COc1cc2ncc(-c3cccc(NC4CCNC4)n3)n2cc1Cl (stereo not drawn) [Compound I-21, 6-(6-chloro-7-methoxyimidazo[1,2-a]pyridin-3-yl)-N-(pyrrolidin-3-yl)pyridin-2-amine] | 27 min |  | 
COc1cc2ncc(-c3cccc(NC4CCNC4)n3)n2cc1-c1ccncc1 (stereo not drawn) [Compound I-23, 6-(7-methoxy-6-(pyridin-4-yl)imidazo[1,2-a]pyridin-3-yl)-N-(pyrrolidin-3-yl)pyridin-2-amine] | >30.0 min |  | 1.83 µM
COc1cc2ncc(-c3cccc(NC4CCNC4)n3)n2cc1-c1c(C)n[nH]c1C (stereo not drawn) [Compound I-25, 6-(6-(3,5-dimethyl-1H-pyrazol-4-yl)-7-methoxyimidazo[1,2-a]pyridin-3-yl)-N-(pyrrolidin-3-yl)pyridin-2-amine] | >30.0 min |  | 15.7 µM
COc1cc2ncc(-c3cccc(NC4CCNC4)n3)n2cc1-c1cnn(CCN2CCOCC2)c1 (stereo not drawn) [Compound I-26] | >30.0 min | 0.02 µM | 15.7 µM
COc1cc2ncc(-c3cccc(NC4CCNC4)n3)n2cc1-c1cc[nH]c1 (stereo not drawn) [Compound I-27, 6-(7-methoxy-6-(1H-pyrrol-3-yl)imidazo[1,2-a]pyridin-3-yl)-N-(pyrrolidin-3-yl)pyridin-2-amine] | >30.0 min |  | 4.43 µM
COc1cc2ncc(-c3cccc(NC4CCNC4)n3)n2cc1-c1c(C)noc1C (stereo not drawn) [Compound I-28, 6-(6-(3,5-dimethylisoxazol-4-yl)-7-methoxyimidazo[1,2-a]pyridin-3-yl)-N-(pyrrolidin-3-yl)pyridin-2-amine] |  |  | 14.8 µM
COc1cc2ncc(-c3cccc(NC4CCCNC4)n3)n2cc1-c1cn[nH]c1 (stereo not drawn) [Compound I-29, 6-(7-methoxy-6-(1H-pyrazol-4-yl)imidazo[1,2-a]pyridin-3-yl)-N-(piperidin-3-yl)pyridin-2-amine] | 9.8 min |  | 9.35 µM
COc1cc2ncc(-c3cccc(N(C)C4CCNC4)n3)n2cc1-c1cn[nH]c1 (stereo not drawn) [Compound I-31, 6-(7-methoxy-6-(1H-pyrazol-4-yl)imidazo[1,2-a]pyridin-3-yl)-N-methyl-N-(pyrrolidin-3-yl)pyridin-2-amine] |  |  | 16.6 µM
COc1cc2ncc(-c3cccc(OC4CCNC4)n3)n2cc1-c1cn[nH]c1 (stereo not drawn) [Compound I-32, 7-methoxy-6-(1H-pyrazol-4-yl)-3-(6-(pyrrolidin-3-yloxy)pyridin-2-yl)imidazo[1,2-a]pyri-dine] | 7.7 min |  | 3.72 µM
COc1cc2ncc(-c3nc(NC4CCNC4)c(F)cc3F)n2cc1-c1cn[nH]c1 (stereo not drawn) [Compound I-33, 3,5-difluoro-6-(7-methoxy-6-(1H-pyrazol-4-yl)imidazo[1,2-a]pyridin-3-yl)-N-(pyrrolidin-3-yl)pyridin-2-amine] | 9.3 min |  | 29.8 µM
COc1cc2ncc(-c3cccc(NC4CCNC4)n3)n2cc1OC (stereo not drawn) [Compound I-36] | >30.0 min | 0.017 µM | 4.43 µM
COc1cc(-c2cn[nH]c2)cn2c(-c3cccc(NC4CCNC4)n3)cnc12 (stereo not drawn) [Compound I-37] | 2.3 min | 2.22 µM | 16.6 µM
c1cc(NC2CCNC2)nc(-c2cnc3cc(OCCN4CCOCC4)c(-c4cn[nH]c4)cn23)c1 (stereo not drawn) [Compound I-41, 6-(7-(2-morpholinoethoxy)-6-(1H-pyrazol-4-yl)imidazo[1,2-a]pyridin-3-yl)-N-(pyrrolidin-3-yl)pyridin-2-amine] | >30.0 min |  | 17.6 µM
COc1cc(Cl)cn2c(-c3cccc(NC4CNC4)n3)cnc12 [Compound I-42, N-(azetidin-3-yl)-6-(6-chloro-8-methoxyimidazo[1,2-a]pyridin-3-yl)pyridin-2-amine] |  |  | 20.9 µM

Compound | Stability [1] | IC50 [2] | IC50 [3]
c1cc(N[C@@H]2CCNC2)nc(-c2cnc3ccc(-c4cn[nH]c4)cn23)c1 [Compound I-43] |  | 0.076 µM | 
c1cc(N[C@H]2CCNC2)nc(-c2cnc3ccc(-c4cn[nH]c4)cn23)c1 [Compound I-44] |  | 0.017 µM | 
c1cc(NC2CNC2)nc(-c2cnc3ccc(-c4cn[nH]c4)cn23)c1 [Compound I-45] |  | 0.46 µM | 4.29 µM
Fc1cc(F)c(-c2cnc3ccc(Cl)cn23)nc1NC1CNC1 [Compound I-47] | >30.0 min |  | 1.88 µM
Cc1ccc(-c2cnc3ccc(Cl)cn23)nc1NC1CNC1 [Compound I-48] |  | 2.79 µM | 
Cc1ccc(NC2CNC2)nc1-c1cnc2ccc(Cl)cn12 [Compound I-49] |  | 0.892 µM | 
COc1ccn2c(-c3cccc(NC4CNC4)n3)cnc2c1 [Compound I-50, N-(azetidin-3-yl)-6-(7-methoxyimidazo[1,2-a]pyridin-3-yl)pyridin-2-amine] | >30.0 min |  | 
CN(c1cccc(-c2cnc3ccc(Cl)cn23)n1)C1CCNCC1 [Compound I-51] |  | 0.028 µM | 
Brc1ccc2ncc(-c3cccc(NC4CNC4)n3)n2c1 [Compound I-52] |  | 0.085 µM | 
Clc1ccc2ncc(-c3cc(Br)cc(NC4CNC4)n3)n2c1 [Compound I-53] | >30.0 min | 4.96 µM | 
c1cc(NC2CCNC2)nc(-c2cnc3ccc(-c4cn[nH]c4)cn23)c1 (stereo not drawn) [Compound I-54, 6-(6-(1H-pyrazol-4-yl)imidazo[1,2-a]pyridin-3-yl)-N-(pyrrolidin-3-yl)pyridin-2-amine] |  | 0.107 µM | 
CC(=O)N1CC(Nc2cccc(-c3cnc4ccc(Cl)cn34)n2)C1 [Compound I-57] | >30.0 min | 0.399 µM | 
O=C(c1ccccc1)N1CC(Nc2cccc(-c3cnc4ccc(Cl)cn34)n2)C1 [Compound I-58] | 8.0 min | 0.709 µM | 
N#CCC(=O)N1CC(Nc2cccc(-c3cnc4ccc(Cl)cn34)n2)C1 [Compound I-59] | >30.0 min | 0.205 µM | 
Cc1ccn2c(-c3cccc(NC4CNC4)n3)cnc2c1 [Compound I-61, N-(azetidin-3-yl)-6-(7-methylimidazo[1,2-a]pyridin-3-yl)pyridin-2-amine] | >30.0 min |  | 
Clc1cc2ncc(-c3cccc(NC4CNC4)n3)n2cc1Cl [Compound I-62] | >30.0 min | 0.154 µM | 
CCN1CCN(c2ccc3ncc(-c4cccc(NC5CNC5)n4)n3c2)CC1 [Compound I-64] |  | 2 µM | 
COc1cc(NC2CNC2)nc(-c2cnc3ccc(Cl)cn23)c1 [Compound I-67, N-(azetidin-3-yl)-6-(6-chloroimidazo[1,2-a]pyridin-3-yl)-4-methoxypyridin-2-amine] | >30.0 min |  | 
